Laboratory results: patent publication US20050112573A1, “Method of detecting toxic substance” (priority 2001, published 2005)

Tested on: yeast genes (level of expressed mRNA)
Test: DNA chip analysis of expressed mRNA of yeast genes after 2 h culture with a toxic chemical substance
Type: cell-based, Saccharomyces cerevisiae S288C
Experimental: Yeast (Saccharomyces cerevtisiae S288C (α SUC2mal mel gap2 CUP1)) were cultured at 25° C. on YPD medium (yeast extract 1%, polypepton 2%, glucose 2%). One of toxic chemical substances was added to the cell at logarithmic growth phase, and the cell was further cultured for two hours. Cell was cultured without any chemical substance in the same condition, and was used as control. Concentrations of the chemical substances were defined to inhibit the growth of the yeast but not lead to death.
After the completion of cultivation, the culture was centrifuged to collect the cells. To the cells, sodium acetate buffer (50 mM sodium acetate, 10 mM EDTA, 1% SDS) was added, and the mixture was shaken at 65° C. for five minutes, followed by returning to room temperature, and obtaining the supernatant, which procedure was repeated two times. To the supernatant, ½ amount of a solution of phenol/chloroform was added, and the mixture was centrifuged to give a supernatant, which was added with an equal amount of chloroform, and the mixture was centrifuged to give a supernatant. To the supernatant, an equal amount of isopropanol containing 0.3 M sodium acetate was added, and the mixture was allowed to stand at room temperature for 30 minutes, after which the mixture was centrifuged to give a sediment of the whole RNAs. Seventy % ethanol was added to the sediment, and the mixture was again centrifuged to give a sediment, which was then dried and dissolved in water. mRNA was isolated from the whole RNAs as followings. In view of the fact that a poly A chain is attached to the 3′ terminus of mRNA, a polynucleotide having a poly T structure which was immobilized on the surface of latex beads was used to trap the mRNA, and then the mRNA was washed and eluted with spine column (Oligotex-dT30<Super>mRNA Purification Kit, Takara). Reverse transcription of the mRNA was conducted with a reverse transcriptase (Super Script II Reverse Transcriptase; catalogue No. 18064-014, GibcoBRL) using fluorescence-labeled nucleotides to give cDNAs that were introduced with Cy3-dUTP or Cy5-dUTP during the reverse transcription.
The labeled cDNAs were dissolved in TE buffer (10 mM Tris-HCl/1 mM EDTA, pH8.0), and the solution was dropped on the DNA chip containing the whole genes of yeast (DNA Chip Research Inc. Japan) so that the cDNAs were hybridized on the DNA chip at 65° C. for over 12 hours. The fluoresces intensity of the DNA chip was read with a scanner, and the ratio relative to the fluorescence intensity resulting from the absence of chemical substance was estimated as the following, which is shown in Tables 1 to 9: [formula]
In the Tables, “Intensity” indicated in the rightmost column is a value of the level of expressed mRNA of each gene in control cells as divided by the average level of the expressions of the whole genes.

## CN(C)C(=S)SSC(=S)N(C)C [(10), Tetramethylthiuram disulfide]
Yeast gene YKL013C
  The level of expressed mRNA in the presence of chemical substance/The level of expressed mRNA in the absence of chemical substance: 1.4
Yeast gene YKL039W
  The level of expressed mRNA in the presence of chemical substance/The level of expressed mRNA in the absence of chemical substance: 3.3
Yeast gene YKL041W
  The level of expressed mRNA in the presence of chemical substance/The level of expressed mRNA in the absence of chemical substance: 1.5
Yeast gene YKL096W
  The level of expressed mRNA in the presence of chemical substance/The level of expressed mRNA in the absence of chemical substance: 0.5
Yeast gene YKL165C
  The level of expressed mRNA in the presence of chemical substance/The level of expressed mRNA in the absence of chemical substance: 0.4
Yeast gene YKL193C
  The level of expressed mRNA in the presence of chemical substance/The level of expressed mRNA in the absence of chemical substance: 1.6
Yeast gene YLR120C
  The level of expressed mRNA in the presence of chemical substance/The level of expressed mRNA in the absence of chemical substance: 1.6
Yeast gene YLR136C
  The level of expressed mRNA in the presence of chemical substance/The level of expressed mRNA in the absence of chemical substance: 6.0
Yeast gene YLR178C
  The level of expressed mRNA in the presence of chemical substance/The level of expressed mRNA in the absence of chemical substance: 4.1
Yeast gene YLR250W
  The level of expressed mRNA in the presence of chemical substance/The level of expressed mRNA in the absence of chemical substance: 2.4
Yeast gene YLR327C
  The level of expressed mRNA in the presence of chemical substance/The level of expressed mRNA in the absence of chemical substance: 8.3
Yeast gene YLR356W
  The level of expressed mRNA in the presence of chemical substance/The level of expressed mRNA in the absence of chemical substance: 1.6
Yeast gene YLR362W
  The level of expressed mRNA in the presence of chemical substance/The level of expressed mRNA in the absence of chemical substance: 3.3
Yeast gene YLR391W
  The level of expressed mRNA in the presence of chemical substance/The level of expressed mRNA in the absence of chemical substance: 0.7
Yeast gene YLR429W
  The level of expressed mRNA in the presence of chemical substance/The level of expressed mRNA in the absence of chemical substance: 1.3
Yeast gene YMR004W
  The level of expressed mRNA in the presence of chemical substance/The level of expressed mRNA in the absence of chemical substance: 3.4
Yeast gene YMR094W
  The level of expressed mRNA in the presence of chemical substance/The level of expressed mRNA in the absence of chemical substance: 0.9
Yeast gene YMR104C
  The level of expressed mRNA in the presence of chemical substance/The level of expressed mRNA in the absence of chemical substance: 3.2
Yeast gene YMR219W
  The level of expressed mRNA in the presence of chemical substance/The level of expressed mRNA in the absence of chemical substance: 0.9
Yeast gene YMR226C
  The level of expressed mRNA in the presence of chemical substance/The level of expressed mRNA in the absence of chemical substance: 2.2
Yeast gene YMR275C
  The level of expressed mRNA in the presence of chemical substance/The level of expressed mRNA in the absence of chemical substance: 2.1
Yeast gene YMR276W
  The level of expressed mRNA in the presence of chemical substance/The level of expressed mRNA in the absence of chemical substance: 1.7
Yeast gene YMR314W
  The level of expressed mRNA in the presence of chemical substance/The level of expressed mRNA in the absence of chemical substance: 2.7
Yeast gene YNL006W
  The level of expressed mRNA in the presence of chemical substance/The level of expressed mRNA in the absence of chemical substance: 4.0
Yeast gene YNL007C
  The level of expressed mRNA in the presence of chemical substance/The level of expressed mRNA in the absence of chemical substance: 1.7
Yeast gene YNL093W
  The level of expressed mRNA in the presence of chemical substance/The level of expressed mRNA in the absence of chemical substance: 2.0
Yeast gene YNL333W
  The level of expressed mRNA in the presence of chemical substance/The level of expressed mRNA in the absence of chemical substance: 2.1
Yeast gene YNR010W
  The level of expressed mRNA in the presence of chemical substance/The level of expressed mRNA in the absence of chemical substance: 0.9
Yeast gene YNR069C
  The level of expressed mRNA in the presence of chemical substance/The level of expressed mRNA in the absence of chemical substance: 5.8
Yeast gene YOL013C
  The level of expressed mRNA in the presence of chemical substance/The level of expressed mRNA in the absence of chemical substance: 1.0
Yeast gene YOL164W
  The level of expressed mRNA in the presence of chemical substance/The level of expressed mRNA in the absence of chemical substance: 3.6
Yeast gene YOR036W
  The level of expressed mRNA in the presence of chemical substance/The level of expressed mRNA in the absence of chemical substance: 1.9
Yeast gene YOR117W
  The level of expressed mRNA in the presence of chemical substance/The level of expressed mRNA in the absence of chemical substance: 1.8
Yeast gene YOR124C
  The level of expressed mRNA in the presence of chemical substance/The level of expressed mRNA in the absence of chemical substance: 1.9
Yeast gene YOR132W
  The level of expressed mRNA in the presence of chemical substance/The level of expressed mRNA in the absence of chemical substance: 1.6
Yeast gene YOR157C
  The level of expressed mRNA in the presence of chemical substance/The level of expressed mRNA in the absence of chemical substance: 2.6
Yeast gene YOR181W
  The level of expressed mRNA in the presence of chemical substance/The level of expressed mRNA in the absence of chemical substance: 0.5
Yeast gene YOR185C
  The level of expressed mRNA in the presence of chemical substance/The level of expressed mRNA in the absence of chemical substance: 2.9
Yeast gene YOR198C
  The level of expressed mRNA in the presence of chemical substance/The level of expressed mRNA in the absence of chemical substance: 1.4
Yeast gene YOR259C
  The level of expressed mRNA in the presence of chemical substance/The level of expressed mRNA in the absence of chemical substance: 1.5
Yeast gene YOR261C
  The level of expressed mRNA in the presence of chemical substance/The level of expressed mRNA in the absence of chemical substance: 2.5
Yeast gene YOR288C
  The level of expressed mRNA in the presence of chemical substance/The level of expressed mRNA in the absence of chemical substance: 1.0
Yeast gene YOR355W
  The level of expressed mRNA in the presence of chemical substance/The level of expressed mRNA in the absence of chemical substance: 0.8
Yeast gene YOR383C
  The level of expressed mRNA in the presence of chemical substance/The level of expressed mRNA in the absence of chemical substance: 4.5
Yeast gene YPL089C
  The level of expressed mRNA in the presence of chemical substance/The level of expressed mRNA in the absence of chemical substance: 2.5
Yeast gene YPL109C
  The level of expressed mRNA in the presence of chemical substance/The level of expressed mRNA in the absence of chemical substance: 1.5
Yeast gene YPL149W
  The level of expressed mRNA in the presence of chemical substance/The level of expressed mRNA in the absence of chemical substance: 3.7
Yeast gene YPL154C
  The level of expressed mRNA in the presence of chemical substance/The level of expressed mRNA in the absence of chemical substance: 1.7
Yeast gene YPR103W
  The level of expressed mRNA in the presence of chemical substance/The level of expressed mRNA in the absence of chemical substance: 2.0
Yeast gene YPR108W
  The level of expressed mRNA in the presence of chemical substance/The level of expressed mRNA in the absence of chemical substance: 2.8
